This note sets out measurements from ChEMBL document CHEMBL1154134, “Scalarane sesterterpenes from the sponge Smenospongia sp” (J Nat Prod, 2008).

The target in experiment [1] is Isocitrate lyase (Magnaporthe oryzae (strain 70-15 / FGSC 8958) (Rice blast fungus)(Pyricularia oryzae), UniProt P0CT06). Put plainly: Inhibition of Magnaporthe grisea isocitrate lyase. Also noted: species or system Pyricularia grisea.
For experiment [2], the system named is Staphylococcus aureus. Put plainly: Antibacterial activity against Staphylococcus aureus ATCC 65389 after 24 hrs by twofold dilution method. Format: functional. To be noted: ATCC 65389, 24 h.
Experiment [3] concerns Bacillus subtilis. Put plainly: Antibacterial activity against Bacillus subtilis ATCC 6633 after 24 hrs by twofold dilution method. The experiment is classed as functional. To be noted: ATCC 6633, 24 h.
Experiment [4] concerns Micrococcus luteus. Put plainly: Antibacterial activity against Micrococcus luteus IFC 12708 after 24 hrs by twofold dilution method. The experiment is classed as functional. To be noted: IFC 12708, 24 h.
For experiment [5], the system named is Proteus vulgaris. Put plainly: Antibacterial activity against Proteus vulgaris ATCC 3851 after 24 hrs by twofold dilution method. To be noted: ATCC 3851, 24 h. Format: functional.
The subject of experiment [6] is Salmonella typhimurium. The experiment in a line: Antibacterial activity against Salmonella Typhimurium ATCC 14028 after 24 hrs by two-fold dilution method. The experiment is classed as functional, Salmonella enterica subsp. enterica serovar Typhimurium. The settings on record: Salmonella enterica, ATCC 14028, 24 h.
In experiment [7] the test system is Escherichia coli. The experiment in a line: Antibacterial activity against Escherichia coli ATCC 25922 after 24 hrs by twofold dilution method. The experiment is classed as functional. To be noted: ATCC 25922, 24 h.
Experiment [8] concerns K562. Put plainly: Cytotoxicity against human K562 cells after 48 hrs by SRB assay. The experiment is classed as functional. To be noted: K562, 48 h, read-out: LC50 (the source's name). (In SRB staining, fixed cells bind dye roughly in proportion to their protein.)

For orientation: pIC50 means the IC50 on a negative log10 scale, so that one unit is a factor of ten. Read a low pIC50 as a high IC50. Usually MIC stands for the lowest concentration found to suppress growth. The low end stands for greater potency, the high end for weaker potency.

pIC50: −log10 of the molar value. In brackets after ≈: the same amount, converted by molar mass. Some results are limits rather than exact numbers.

Isocitrate lyase, sequence (P0CT06 whole entry): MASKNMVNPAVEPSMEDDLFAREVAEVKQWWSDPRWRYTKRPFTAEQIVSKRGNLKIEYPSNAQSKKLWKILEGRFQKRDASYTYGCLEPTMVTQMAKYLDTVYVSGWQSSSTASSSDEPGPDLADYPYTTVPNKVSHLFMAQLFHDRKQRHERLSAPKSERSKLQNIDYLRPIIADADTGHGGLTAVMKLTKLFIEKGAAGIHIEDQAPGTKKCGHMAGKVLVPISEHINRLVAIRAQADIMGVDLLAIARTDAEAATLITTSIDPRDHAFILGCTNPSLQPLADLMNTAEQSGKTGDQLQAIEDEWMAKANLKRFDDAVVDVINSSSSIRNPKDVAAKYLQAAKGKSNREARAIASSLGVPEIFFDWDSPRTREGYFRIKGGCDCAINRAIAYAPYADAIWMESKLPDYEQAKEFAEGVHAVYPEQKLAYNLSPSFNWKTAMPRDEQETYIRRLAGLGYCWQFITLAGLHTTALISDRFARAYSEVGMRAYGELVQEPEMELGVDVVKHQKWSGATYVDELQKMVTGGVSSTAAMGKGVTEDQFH

As for `O=C(O)CC[N+](=O)[O-]`, the negative-log IC50 (pIC50) in experiment [1] was 4.29.
As for `CC1=C(O)/C(=C/[C@H](C)CCC/C(C)=C/CC/C(C)=C/CCc2ccoc2)OC1=O`, the minimal inhibitory concentration (MIC) in experiment [2] was 12.5 µg/mL (≈ 31.4 µM); in experiment [3], 6.25 µg/mL (≈ 15.7 µM); in experiment [4], 6.25 µg/mL (≈ 15.7 µM); in experiment [5] it was 6.25 µg/mL (≈ 15.7 µM); in experiment [6] it was 6.25 µg/mL (≈ 15.7 µM); in experiment [7], greater than 100 µg/mL. Also, the CC50 in experiment [8] is 43.7 µg/mL (≈ 110 µM). In addition, in experiment [1], the negative-log IC50 (pIC50) was 4.17.
As for `C/C(=C\CC/C(C)=C/C[C@H](O)c1ccoc1)CC/C=C(\C)CC(=O)CC(C)C`, the minimum inhibitory concentration (MIC) in experiment [2] was greater than 100 µg/mL; in experiment [3] it was 6.25 µg/mL (≈ 16.2 µM); in experiment [4], greater than 100 µg/mL; in experiment [5], greater than 100 µg/mL; in experiment [6], greater than 100 µg/mL; in experiment [7], greater than 100 µg/mL. The CC50 in experiment [8] is 5.7 µg/mL (≈ 14.7 µM). Besides, in experiment [1], the negative logarithm of the IC50 (pIC50) is less than 3.59.
`CC(=O)O[C@@H]1OC=C2[C@H]1[C@@]1(C)CC[C@H]3[C@@](C)(CC[C@H]4C(C)(C)CCC[C@]34C)[C@@H]1C[C@@H]2O`: the minimal inhibitory concentration (MIC) in experiment [2] was greater than 100 µg/mL; in experiment [3], 3.12 µg/mL (≈ 7.25 µM); in experiment [4] it was greater than 100 µg/mL; in experiment [5], greater than 100 µg/mL; in experiment [6], 12.5 µg/mL (≈ 29 µM); in experiment [7] it was greater than 100 µg/mL. Further, the CC50 in experiment [8] came to 5.8 µg/mL (≈ 13.5 µM). The compound further gave a negative-log IC50 (pIC50) in experiment [1] of less than 3.63.
Consider `CC(=O)O[C@@H]1OC=C2[C@@H](OC(C)=O)C[C@@H]3[C@](C)(CC[C@H]4[C@@]3(C)CC[C@H]3C(C)(C)CCC[C@@]34C=O)[C@H]21`, for which the minimal inhibitory concentration (MIC) in experiment [2], in experiment [3], in experiment [4], in experiment [5], in experiment [6] and in experiment [7] was greater than 100 µg/mL in each case. Further, in experiment [8], the CC50 was found to be 17.5 µg/mL (≈ 36 µM). The compound also gave a pIC50 in experiment [1] of less than 3.69.
As for `COC(=O)C1=CC[C@@H]2[C@](C)(CC[C@H]3[C@@]2(C)CC[C@H]2C(C)(C)CCC[C@@]23COC(C)=O)[C@H]1C=O`, the minimal inhibitory concentration (MIC) in experiment [2] was 25 µg/mL (≈ 54.5 µM); in experiment [3], 0.78 µg/mL (≈ 1.7 µM); in experiment [4] it was 12.5 µg/mL (≈ 27.3 µM); in experiment [5] it was 6.25 µg/mL (≈ 13.6 µM); in experiment [6] it was 12.5 µg/mL (≈ 27.3 µM); in experiment [7] it was greater than 100 µg/mL. Also, in experiment [8], the CC50 was found to be 8.6 µg/mL (≈ 18.8 µM). In addition, in experiment [1], the pIC50 was 3.92.
Regarding `COC(=O)C1=CC[C@@H]2[C@](C)(CC[C@H]3[C@@]2(C)CC[C@H]2C(C)(C)CCC[C@@]23COC(C)=O)[C@@H]1C=O`, the MIC in experiment [2], in experiment [3], in experiment [4], in experiment [5], in experiment [6] and in experiment [7] was greater than 100 µg/mL each time. In addition, the CC50 in experiment [8] was 3.7 µg/mL (≈ 8.07 µM). The same compound had a negative logarithm of the IC50 (pIC50) in experiment [1] of less than 3.66.
Turning to `CC(=O)O[C@@H]1OC(=O)C2=CC[C@@H]3[C@](C)(CC[C@H]4[C@@]3(C)CC[C@H]3C(C)(C)CCC[C@@]34CO)[C@H]21`, the minimum inhibitory concentration (MIC) was greater than 100 µg/mL in experiment [2]; 1.56 µg/mL (≈ 3.51 µM) in experiment [3]; 3.12 µg/mL (≈ 7.02 µM) in experiment [4]; greater than 100 µg/mL in experiment [5]; 6.25 µg/mL (≈ 14.1 µM) in experiment [6]; greater than 100 µg/mL in experiment [7]. The CC50 in experiment [8] turned out to be 22.5 µg/mL (≈ 50.6 µM). In experiment [1], the pIC50 is less than 3.65.
`CO[C@@H]1OCC2=CC[C@@H]3[C@](C)(CC[C@H]4[C@@]3(C)CC[C@H]3C(C)(C)CCC[C@@]34CO)[C@H]21`: the minimal inhibitory concentration (MIC) in experiment [2] is greater than 100 µg/mL; in experiment [3], 50 µg/mL (≈ 124 µM); in experiment [4], greater than 100 µg/mL; in experiment [5], greater than 100 µg/mL; in experiment [6], 6.25 µg/mL (≈ 15.5 µM); in experiment [7], greater than 100 µg/mL. In addition, the CC50 in experiment [8] was determined as 0.11 µg/mL (≈ 0.273 µM). For the same compound, the negative-log IC50 (pIC50) in experiment [1] was 3.98.
Turning to `CC(=O)O[C@@H]1OC=C2[C@@H](OC(C)=O)C[C@@H]3[C@](C)(CC[C@H]4[C@@]3(C)CC[C@H]3C(C)(C)CCC[C@@]34CO)[C@H]21`, the MIC in experiment [2] was greater than 100 µg/mL; in experiment [3] it was 0.78 µg/mL (≈ 1.6 µM); in experiment [4], 100 µg/mL (≈ 205 µM); in experiment [5] it was greater than 100 µg/mL; in experiment [6], 6.25 µg/mL (≈ 12.8 µM); in experiment [7], greater than 100 µg/mL. Further, the CC50 in experiment [8] was 0.13 µg/mL (≈ 0.266 µM). The compound further showed a negative-log IC50 (pIC50) in experiment [1] of less than 3.69.
In the case of `CC(=O)OC[C@]12CCCC(C)(C)[C@@H]1CC[C@@]1(C)[C@@H]3CC=C(C(=O)O)[C@@H](C=O)[C@@]3(C)CC[C@@H]12`, the minimum inhibitory concentration (MIC) is greater than 100 µg/mL in experiment [2]; greater than 100 µg/mL in experiment [3]; greater than 100 µg/mL in experiment [4]; 100 µg/mL (≈ 225 µM) in experiment [5]; greater than 100 µg/mL in experiment [6]; greater than 100 µg/mL in experiment [7]. In addition, the CC50 in experiment [8] was 4.2 µg/mL (≈ 9.45 µM). The same compound gave a pIC50 in experiment [1] of less than 3.65.
With `CC1=C(O)/C(=C/[C@H](C)CC/C=C(/C)CCC/C=C(/C)CCc2ccoc2)OC1=O`, the MIC in experiment [2] was 6.25 µg/mL (≈ 15.7 µM); in experiment [3], 6.25 µg/mL (≈ 15.7 µM); in experiment [4], 3.12 µg/mL (≈ 7.83 µM); in experiment [5], 6.25 µg/mL (≈ 15.7 µM); in experiment [6] it was 12.5 µg/mL (≈ 31.4 µM); in experiment [7], greater than 100 µg/mL. Also, the CC50 in experiment [8] came out at 7.3 µg/mL (≈ 18.3 µM). Moreover, the pIC50 in experiment [1] was 4.11.
For the compound `CC1(C)CCC[C@@]2(CO)[C@H]1CC[C@]1(C)[C@@H]2CC[C@]2(C)c3cocc3CC[C@@H]12`, the MIC in experiment [2] was greater than 100 µg/mL; in experiment [3] it was 1.56 µg/mL (≈ 4.21 µM); in experiment [4], 6.25 µg/mL (≈ 16.9 µM); in experiment [5], greater than 100 µg/mL; in experiment [6] it was 12.5 µg/mL (≈ 33.7 µM); in experiment [7] it was greater than 100 µg/mL. In addition, the CC50 in experiment [8] was 0.97 µg/mL (≈ 2.62 µM). In experiment [1], this compound had a negative logarithm of the IC50 (pIC50) of 3.91.
For `CC(=O)OC[C@]12CCCC(C)(C)[C@@H]1CC[C@]1(C)[C@@H]2CC[C@]2(C)c3cocc3CC[C@@H]12`, the MIC is greater than 100 µg/mL in experiment [2]; 3.12 µg/mL (≈ 7.56 µM) in experiment [3]; 25 µg/mL (≈ 60.6 µM) in experiment [4]; greater than 100 µg/mL in experiment [5]; greater than 100 µg/mL in experiment [6]; greater than 100 µg/mL in experiment [7]. Also, in experiment [8], the CC50 was 2.3 µg/mL (≈ 5.57 µM). Also, in experiment [1], the negative-log IC50 (pIC50) was less than 3.62.
On to `CC(=O)OC[C@]12CCCC(C)(C)[C@@H]1CC[C@@]1(C)[C@@H]3C[C@H](OC(C)=O)C4=CO[C@@H](OC(C)=O)[C@@H]4[C@@]3(C)CC[C@@H]12`, for which the MIC in experiment [2], in experiment [3], in experiment [4], in experiment [5], in experiment [6] and in experiment [7] was greater than 100 µg/mL each time. Moreover, in experiment [8], the CC50 is 6.8 µg/mL (≈ 12.8 µM). Besides, the negative logarithm of the IC50 (pIC50) in experiment [1] is less than 3.72.
As for `CC1(C)S[C@@H]2[C@H](NC(=O)[C@H](N)c3ccccc3)C(=O)N2[C@H]1C(=O)O` [AMPICILLIN], the MIC in experiment [2] worked out at 1.56 µg/mL (≈ 4.46 µM); in experiment [3] it was 1.56 µg/mL (≈ 4.46 µM); in experiment [4], 1.56 µg/mL (≈ 4.46 µM); in experiment [5], 3.12 µg/mL (≈ 8.93 µM); in experiment [6], 3.12 µg/mL (≈ 8.93 µM); in experiment [7], 12.5 µg/mL (≈ 35.8 µM).
For `COc1cccc2c1C(=O)c1c(O)c3c(c(O)c1C2=O)C[C@@](O)(C(=O)CO)C[C@@H]3O[C@H]1C[C@H](N)[C@H](O)[C@H](C)O1` [DOXORUBICIN], the CC50 in experiment [8] worked out at 4.9 µg/mL (≈ 9.02 µM).
